Converted amounts (≈) assume the structure as drawn.
Assays:
[1] = system: Aspergillus niger LOCK E201; test: Antifungal activity in vitro, serial dilution in RPMI 1640; format: cell-based; details: Table 2B
Method in brief: (§1)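 Serial dilution, RPMI 1640 pH 7.0 (M27-A2 reference method); A531 read-out. IC50 = interpolated conc. at 50% of control A531; MIC = lowest conc. with A531 ≤20% of control.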

[2] = system: Candida albicans ATCC 10231; test: as above; format: cell-based; details: for Antifungal activity Candida albicans ATCC 10231 IC50 / Antifungal activity Candida albicans ATCC 10231 MIC: Table 2A, RPMI 1640, pH 7.0; for Antifungal activity Candida albicans ATCC 10231 IC50: A531 50% of control; for Antifungal activity Candida albicans ATCC 10231 MIC: A531 at most 20% of control; for MIC Candida albicans ATCC 10231: Table 2B
Method in brief: as §1

Candida arborea KKP 319 = test: as above; format: cell-based; details: Table 2B
Method in brief: as §1

[3] = system: Candida dubliniensis CBS 7987; test: as above; format: cell-based; details: Table 2B
Method in brief: as §1

[4] = system: Candida glabrata DSM 11226; test: as above; format: cell-based; details: Table 2A; RPMI 1640, pH 7.0
Method in brief: as §1

Candida krusei DSM 6128 = test: as above; format: cell-based; details: Table 2A; RPMI 1640, pH 7.0
Method in brief: as §1

[5] = system: Candida lipolytica KKP 322; test: as above; format: cell-based; details: Table 2B
Method in brief: as §1

[6] = system: Candida lusitaniae DSM 70102; test: as above; format: cell-based; details: Table 2A; RPMI 1640, pH 7.0
Method in brief: as §1

[7] = system: Candida parapsilosis DSM 5784; test: as above; format: cell-based; details: Table 2B
Method in brief: as §1

[8] = system: Candida pseudotropicalis KKP 324; test: as above; format: cell-based; details: Table 2B
Method in brief: as §1

[9] = system: Candida quilliermondii DSM 11947; test: as above; format: cell-based; details: Table 2B
Method in brief: as §1

[10] = system: Candida stellatoidea CBS 1905; test: as above; format: cell-based; details: Table 2B
Method in brief: as §1

[11] = system: Candida tropicalis KKP 334; test: as above; format: cell-based; details: Table 2A; RPMI 1640, pH 7.0
Method in brief: as §1

[12] = system: Saccharomyces cerevisiae ATCC 9763; test: as above; format: cell-based; details: for Antifungal activity Saccharomyces cerevisiae ATCC 9763 MIC: Table 2A, RPMI 1640, pH 7.0, A531 at most 20% of control; for MIC Saccharomyces cerevisiae ATCC 9763: Table 2B
Method in brief: as §1

[13] = system: Trichoderma viride LOCK E159; test: as above; format: cell-based; details: Table 2B
Method in brief: as §1

Human erythrocytes = test: Hemotoxicity (hemolytic activity); details: human erythrocytes
Method in brief: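 Human erythrocytes in saline (2×10^7/ml) were incubated with serially diluted compound at 37 °C for 30 min, then centrifuged. Released hemoglobin was read as A540 against 0.1% Triton X-100 as full hemolysis. EH50 is the interpolated concentration giving 50% of the control A540.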

Candida albicans 5674 = test: Antifungal activity towards resistant (MDR) strains; format: cell-based; details: C. albicans 5674 overexpressing CDR1 and CDR2
Protocol: (§2) The determination of antifungal activity was performed by the serial dilutions method in buffered RPMI 1640 medium, in a 96-wells microplates, according to the standard procedure (National Committee for Clinical Laboratory Standards. Reference method for broth dilution antifungal susceptibility testing of yeast, approved standard, 2nd ed. M27-A2 vol. 22 Wayne, Pa., 2002). The optical density of cells suspension was measured using a microplates reader (Victor^3, Perkin-Elmer) at the wavelength λ=660 nm (A660). On the basis of received results the diagrams on interrelation between the A660 value and the concentration of tested compound were made. From these graphs MIC values were read, that are the concentrations of tested compounds, in the presence at which A660 value is at most 20% of A660 value measured in control sample.

Candida albicans B3 = test: as above; format: cell-based; details: fluconazole sensitive, parent strain for B4
Protocol: as §2

Candida albicans B4 = test: as above; format: cell-based; details: fluconazole-resistant due to the overexpression of CaMDR1
Protocol: as §2

Candida albicans F2 = test: as above; format: cell-based; details: fluconazole sensitive, parent strain for F5
Protocol: as §2

Candida albicans F5 = test: as above; format: cell-based; details: fluconazole-resistant due to the overexpression of CaMDR1 and ERG11
Protocol: as §2

Candida albicans Gu4 = test: as above; format: cell-based; details: fluconazole sensitive, parent strain for Gu5
Protocol: as §2

Candida albicans Gu5 = test: as above; format: cell-based; details: fluconazole-resistant due to the overexpression of CDR1 and CDR2
Protocol: as §2

Candida albicans STY19 = test: as above; format: cell-based; details: 5674 mutant derivative, deletion of CDR1
Protocol: as §2

Candida albicans STY31 = test: as above; format: cell-based; details: 5674 mutant derivative, deletion of CDR1 and CDR2
Protocol: as §2

Candida albicans STY7 = test: as above; format: cell-based; details: 5674 mutant derivative, deletion of CDR2
Protocol: as §2

CCRF-CEM = test: Cytotoxic activity against mammalian cells in tissue culture (MTT); format: cell-based, human; details: CCRF-CEM, 120 h, MTT
Method in brief: (§3)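 Cells at 1.2×10^4/well were exposed to serial 2× DMSO dilutions for 120 h at 37 °C: CCRF-CEM in RPMI 1640 + 10% FBS, HepG2 in MEM + 10% FBS, LLC-PK1 in Medium 199 + 3% FBS. MTT was added for 4 h and A540 read. IC50 is the concentration halving A540 versus DMSO control.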

HepG2 = test: as above; format: cell-based, human; details: HepG2, 120 h, MTT
Method in brief: as §3

LLC-PK1 = test: as above; format: cell-based, pig; details: LLC-PK1, 120 h, MTT
Method in brief: as §3

| Molecule | MIC Aspergillus niger LOCK E201 [1] [µg/mL] | Antifungal activity Candida albicans ATCC 10231 IC50 [2] [µg/mL] | Antifungal activity Candida albicans ATCC 10231 MIC [2] [µg/mL] | MIC Candida albicans ATCC 10231 [2] [µg/mL] | MIC Candida arborea KKP 319 (Candida arborea KKP 319) [µg/mL] | MIC Candida dubliniensis CBS 7987 [3] [µg/mL] | Antifungal activity Candida glabrata DSM 11226 MIC [4] [µg/mL] | Antifungal activity Candida krusei DSM 6128 MIC (Candida krusei DSM 6128) [µg/mL] | MIC Candida lipolytica KKP 322 [5] [µg/mL] | MIC Candida parapsilosis DSM 5784 [7] [µg/mL] | MIC Candida pseudotropicalis KKP 324 [8] [µg/mL] | MIC Candida quilliermondii DSM 11947 [9] [µg/mL] | MIC Candida stellatoidea CBS 1905 [10] [µg/mL] | Antifungal activity Candida tropicalis KKP 334 MIC [11] [µg/mL] | Antifungal activity Saccharomyces cerevisiae ATCC 9763 MIC [12] [µg/mL] | MIC Saccharomyces cerevisiae ATCC 9763 [12] [µg/mL] | MIC Trichoderma viride LOCK E159 [13] [µg/mL] | MIC Candida albicans 5674 (Candida albicans 5674) [µg/mL] | MIC Candida albicans B3 (Candida albicans B3) [µg/mL] | MIC Candida albicans B4 (Candida albicans B4) [µg/mL] | further results |
| --- | --- | --- | --- | --- | --- | --- | --- | --- | --- | --- | --- | --- | --- | --- | --- | --- | --- | --- | --- | --- | --- |
| CC1OC(O[C@H]2/C=C/C=C/C=C/C=C/CC/C=C/C=C/[C@H](C)[C@@H](O)[C@@H](C)[C@H](C)OC(=O)C[C@H](O)C[C@H](O)C[C@H](O)CC[C@@H](O)[C@H](O)CC3(O)C[C@H](O)[C@@H](C(=O)O)[C@H](C2)O3)C(O)C(NC(=S)NCC(C)(C)CN(C)C)C1O (stereo partly shown) [Compound N19, N-{3-[3-(N,N-dimethylamino)-2,2-dimethylpropyl]thioureidyl}nystatin A1] | 8 (≈ 7.28 µM) | 2.90 | 4 | 4 (≈ 3.64 µM) | 4 (≈ 3.64 µM) | 4 (≈ 3.64 µM) | 8 | 8 | 4 (≈ 3.64 µM) | 4 (≈ 3.64 µM) | 4 (≈ 3.64 µM) | 4 (≈ 3.64 µM) | 8 (≈ 7.28 µM) | 4 | 4 | 4 (≈ 3.64 µM) | 8 (≈ 7.28 µM) | 4 (≈ 3.64 µM) | 4 (≈ 3.64 µM) | 4 (≈ 3.64 µM) | Antifungal activity Candida lusitaniae DSM 70102 MIC [6]: 4 µg/mL; EH10 (Human erythrocytes; concentration causing 10% of hemolysis): 209.91 µg/mL; MIC Candida albicans F2 (Candida albicans F2): 4 µg/mL (≈ 3.64 µM); MIC Candida albicans F5 (Candida albicans F5): 4 µg/mL (≈ 3.64 µM); MIC Candida albicans Gu4 (Candida albicans Gu4): 4 µg/mL (≈ 3.64 µM); MIC Candida albicans Gu5 (Candida albicans Gu5): 4 µg/mL (≈ 3.64 µM); MIC Candida albicans STY19 (Candida albicans STY19): 4 µg/mL (≈ 3.64 µM); MIC Candida albicans STY31 (Candida albicans STY31): 4 µg/mL (≈ 3.64 µM); MIC Candida albicans STY7 (Candida albicans STY7): 4 µg/mL (≈ 3.64 µM); Cytotoxicity IC50 CCRF-CEM (CCRF-CEM): >100 µg/mL; Cytotoxicity IC50 HepG2 (HepG2): >100 µg/mL; Cytotoxicity IC50 LLC-PK1 (LLC-PK1): >100 µg/mL |
| N-fructosyl-N-methylnystatin A1 [Compound N28] | 16 | 5.80 | 8 | 8 | 32 | 8 | 16 | 16 | 8 | 16 | 8 | 16 | 8 | 8 | 4 | 4 | 16 | 16 | 8 | 8 | Hemotoxicity BEH50 (Human erythrocytes; 37° C., 30 minutes, concentration causing 50% hemolysis, maximum concentration 300 μg/ml): >250 µg/mL; % of hemolysis at the concentration 60 μg ml^−1 (Human erythrocytes; 60 μg ml^−1): 0.17%; MIC Candida albicans F2 (Candida albicans F2): 8 µg/mL; MIC Candida albicans F5 (Candida albicans F5): 16 µg/mL; MIC Candida albicans Gu4 (Candida albicans Gu4): 8 µg/mL; MIC Candida albicans Gu5 (Candida albicans Gu5): 16 µg/mL; MIC Candida albicans STY19 (Candida albicans STY19): 16 µg/mL; MIC Candida albicans STY31 (Candida albicans STY31): 16 µg/mL; MIC Candida albicans STY7 (Candida albicans STY7): 16 µg/mL; Cytotoxicity IC50 CCRF-CEM (CCRF-CEM): >100 µg/mL; Cytotoxicity IC50 HepG2 (HepG2): >100 µg/mL; Cytotoxicity IC50 LLC-PK1 (LLC-PK1): >100 µg/mL |
